These results are taken from patent US10287283B2, “Read-through compound prodrugs suppressing premature nonsense mutations” (The Regents of the University of California, priority 2014, dated 2019).

Converted amounts (≈) assume the structure as drawn. Where a name gives a salt, the structure may show the parent alone. Read-outs that look alike come from different tables or passages of the source.

Series [1] in a line: Aqueous solubility. It is filed as physicochemical. On the procedure: The solubility of selected compounds was tested and compared to that of comparative compound 5. To 5 mg of each test compound, water was slowly added initially in 0.5 mL and then 0.1 mL increments with vortexing for approximately 1 minute in between each aliquot of water addition and visually inspected for homogeneity. […] Table 1 provides the aqueous solubility of various prodrugs.

Series [2] deals with mdx mice. Nature of the series: Dystrophin expression after intramuscular injection into TA muscles. It is filed as in vivo. The settings on record: for number of dystrophin positive fibers: TA muscle of mdx mice, intramuscular injection, compound 5 compared with prodrugs; for dystrophin staining in TA muscles: mdx mice, two weeks after intramuscular injection, compared to DMSO alone. The source says:
FIG. 8 provides plots showing dystrophin expression after intramuscular injection. Panel (A) provides plots showing dystrophin staining in TA muscles of mdx mice injected with RTC13 or its derivatives and analyzed two weeks after delivery of compounds and compared to muscles treated with DMSO alone. Dystrophin expression was evident in muscles that received the compounds but not in sham-injected muscles. […] (N=4 muscles per compound; scale bar: 50 μ ? ) Panel (B) provides plots showing the number of dystrophin positive fibers determined across the length of the muscle. […] Shown here is the average number of dystrophin positive fibers per cross-sectional area containing the highest number of positives. (N=4 muscles per compound; *: p=0.0008; **: p≤0.04). RTC13: compound 5; […]: compound 16; […]: compound 20; […]: compound 12; and […]: compound 8.

For series [3], the system named is mdx cells. Particulars: cells in culture; cited from earlier work.
In series [4] the test system is mdx mice. The settings on record: cited from earlier work.
Series [5] has as its system normal termination codons. The settings on record: cited from earlier work.
In series [6] the test system is lymphoblastoid cell lines derived from A-T patients. The settings on record: each of the three types of nonsense mutations (TGA>TAA>TAG); cited from earlier work.
Series [7] is described as follows: Pharmacokinetics studies after oral administration of compound 8 (tissue levels). Format: in vivo. The settings on record: C57BL/10 mice; for level in heart: oral compound 8 at 10 mg/kg and 30 mg/kg; for level in biceps / level in gastrocnemius: oral compound 8 at 10 mg/kg. As for the experimental part: FIG. 19 provides plots showing the results of pharmacokinetics studies in C57BL/10 mice after oral administration of compound 8 in gastrocnemius. The compound was administered at the indicated dosages in 6-8 weeks old C57BL/10 mice and tissues were analyzed in gastrocnemius 15 min, 30 min, 1 hr, 4 hrs, 6 hrs, and 24 hrs after gavage. Compound 8 and RTC13 (compound 5) were not detected in muscles isolated from mice that received compound 8 at a dose of 10 mg/kg. RTC13: compound 5; and 13Y: compound 8.
FIG. 20 provides plots showing the results of pharmacokinetics studies in C57BL/10 mice after oral administration of compound 8 in biceps. The compound was administered at the indicated dosages in 6-8 weeks old C57BL/10 mice and tissues were analyzed in biceps 15 min, 30 min, 1 hr, 4 hrs, 6 hrs and 24 hrs after gavage. Compound 8 and RTC13 (compound 5) were not detected in muscles isolated from mice that received compound 8 at a dose of 10 mg/kg. RTC13: compound 5; and 13Y: compound 8.
FIG. 21 provides plots showing the results of pharmacokinetics studies in C57BL/10 mice after oral administration of compound 8 in heart. The compound was administered at the indicated dosages in 6-8 weeks old C57BL/10 mice and tissues were analyzed in heart 15 min, 30 min, 1 hr, 4 hrs, 6 hrs, and 24 hrs after gavage. Compound 8 and RTC13 (compound 5) were not detected in muscles isolated from mice that received compound 8 at a dose of 10 mg/kg and 30 mg/kg. RTC13: compound 5; and 13Y: compound 8.

The test system of series [8] is mdx mice. In words: Forelimb grip test after oral administration. It is filed as in vivo. The settings on record: oral administration for up to one month. The source says: (§1) FIG. 24 provides plots showing functional improvement in mdx mice after oral administration of compound 8 for up to one month. Panel (A) provides plots showing the forelimb grip test that was used to assess the effects of systemic administration of RTCs on muscle strength. […] (N=5 mice per treatment group; *p<0.05; **p<0.005). Panel (B) provides plots showing the results obtained using the wire test. […] (N=6 mice per treatment group; *p<0.05; **p=0.005). 13Y: compound 8.

Series [9] relates to mdx mice. Nature of the series: Dystrophin expression in muscles after oral administration for one month. It is filed as in vivo. Particulars: three times per day for one month, 30 mg/kg or 60 mg/kg. On the procedure: FIG. 23 provides images of microscopic images obtained from muscles isolated from mdx mice after oral administration of compound 8. Compounds were administered in 6-8 weeks old mdx mice three times per day for one month at the indicated dosages. Dystrophin expression was evident in muscles that received the compounds but not in sham-injected muscles. […] 13Y: compound 8.

The subject of series [10] is mdx mice. In words: Wire test after oral administration. Format: in vivo. Particulars: oral administration for up to one month.
From the text: as §1

Series [11] has as its system mdx mice. Nature of the series: In vitro force measurement of diaphragm muscles (eccentric contractions). Format: in vivo. On the procedure: FIG. 25 provides plots showing in vitro force measurement of diaphragm muscles of mdx mice treated with vehicle, compound 8 at a dose of 30 mg/kg or compound 8 at a dose of 60 mg/kg three times per day at intervals of 4 hrs for up to one month. Muscles isolated from untreated and treated mice muscles were subjected to a series of five eccentric contractions with a 5-min rest between contractions. Results were compared to those of wild type (C57BL/10) mice. Panel (A) provides plots showing the decrease in force (in percentage) obtaining following eccentric contractions over the course of the analyses. […] Plot (B) show the results of the decrement in force (in percentage) obtained in mice treated with compound 8. […] (N=4 mice per treatment group, *: p≤0.05; **: p≤0.03). 13Y: compound 8.

Series [12] in a line: Serum chemistry analyses. Particulars: mdx mice; for serum levels of albumin, ALP, total bilirubin, LDH, cholesterol, total protein, and glucose: 30 or 60 mg/kg three times per day up to one month. It is filed as in vivo. As for the experimental part: FIG. 26 provides the results of the serum chemistry analyses of mdx mice treated with vehicle, PTC 124 at a dose of 30 mg/kg, PTC 124 at a dose of 60 mg/kg, compound 8 at a dose of 30 mg/kg or compound 8 at a dose of 60 mg/kg three times per day at intervals of 4 hrs for up to one month. […] Values are expressed as mean plus or minus Standard Deviation (±SD). The symbol * indicates statistical significance compared to mdx treated with vehicle only. The symbol † indicates statistical significance compared to wild type (C57BL/10) untreated mice. (N=4 mice per treatment group; p≤0.05). 13Y: compound 8.

The target of series [13] is FLuc (firefly luciferase) reporter (Photinus pyralis, UniProt P08659). Particulars: cited from earlier work.
FLuc (firefly luciferase) reporter, sequence (P08659 whole entry): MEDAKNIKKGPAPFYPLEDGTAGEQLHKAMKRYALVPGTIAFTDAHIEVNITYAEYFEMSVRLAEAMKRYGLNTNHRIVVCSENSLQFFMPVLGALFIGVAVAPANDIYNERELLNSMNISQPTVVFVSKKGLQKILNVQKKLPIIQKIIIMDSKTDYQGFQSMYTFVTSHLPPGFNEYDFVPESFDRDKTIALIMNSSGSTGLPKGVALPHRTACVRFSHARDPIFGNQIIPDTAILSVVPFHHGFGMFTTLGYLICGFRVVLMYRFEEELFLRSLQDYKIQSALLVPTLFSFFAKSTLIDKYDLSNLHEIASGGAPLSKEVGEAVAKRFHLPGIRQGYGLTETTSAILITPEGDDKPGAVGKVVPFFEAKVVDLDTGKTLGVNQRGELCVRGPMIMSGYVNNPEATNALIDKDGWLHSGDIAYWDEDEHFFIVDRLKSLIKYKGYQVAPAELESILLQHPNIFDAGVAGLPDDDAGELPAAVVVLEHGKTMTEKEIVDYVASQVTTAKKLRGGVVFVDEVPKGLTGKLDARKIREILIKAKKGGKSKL
For series [14] the following is noted: Duchenne boys; cited from earlier work.
The conditions of series [15]: phase-I clinical study in cystic fibrosis; cited from earlier work.
Where [16] appears, read: thermodynamic from solid, water, ambient pH, room temperature, read-out: Solubility in (mg/mL) water at ambient pH, at room temperature.

Take `CN(C)CC(=O)/N=C1\NC(=O)/C(=C/c2ccc(-c3ccccc3[N+](=O)[O-])o2)S1` [Compound 12, (£)-N^2,N^2-dimethyl-7V-[(5Z)-5-{[5-(2-nitrophenyl)furan-2-yl]methylidene}-4-oxo-1,3-thiazolidin-2-ylidene]glycinamide hydrochloride]: the solubility in [1] (setting [16]) is 10 mg/mL. For the same compound, in series [2], the “number of dystrophin positive fibers” value is listed as “No significant differences”.
As to `N=C1NC(=O)/C(=C/c2ccc(-c3ccccc3[N+](=O)[O-])o2)S1` [Compound 5, (5Z)-2-imino-5-([5-(2-nitrophenyl)furan-2-yl]methylidene)-1,3-thiazolidin-4-one], the solubility result in series [1] is reported as “low solubility”. In addition, the dissolution in water result in series [1] (diluted to IL with water, vigorously stirred for up to 12 hr) is reported as “did not appear to dissolve fully”. Besides, in series [1] (setting [16]), the solubility is < 0.005 mg/mL. The “full-length dystrophin in mdx cells” value in series [3] was “restored full-length dystrophin”. For the same compound, the “number of dystrophin positive fibers” value in series [2] is “significantly higher number of positive fibers than muscles that received compounds 16 and 20”. Moreover, the “Dystrophin protein detection in muscle groups” value in [4] (including diaphragm and heart) is given as “detected in all muscle groups analyzed”. Moreover, the “creatine kinase (CK) levels” value in [4] (marker of muscle degeneration) is listed as “decrease”. Also, the “Dystrophin compared to PTC 124” value in series [4] (mdx mice) is “significantly higher”. In addition, in [4] (over mice that did not receive the RTCs), the muscle strength entry is “significant increase in muscle strength”. Moreover, the “dystrophin expression in skeletal muscles” value in [4] (systemic administration, mdx mice) is “restores functional levels of dystrophin expression”. In series [5], the “read-through of normal termination (stop) codons” value is “not read-through normal termination codons”. Further, the “activity in A-T lymphoblastoid cell lines” value in series [6] was “biological activity”. In addition, in series [7], the level in heart result is recorded as “not detected”, the level in biceps entry is “not detected” and the level in gastrocnemius entry is given as “not detected”.
As to `O=C(CN1CCOCC1)/N=C1\NC(=O)/C(=C/c2ccc(-c3ccccc3[N+](=O)[O-])o2)S1` [Compound 20, 2-(morpholin-4-yl)-7V-[(2£′,5Z)-5-{[5-(2-nitrophenyl)furan-2-yl]methylidene}-4-oxo-1,3-thiazolidin-2-ylidene] acetamide], the solubility in series [1] (setting [16]) turned out to be 0.1 mg/mL (≈ 226 µM). In series [2], the “number of dystrophin positive fibers” value was “compound 5 showed a significantly higher number of positive fibers”.
In the case of `CC(C)(C)c1ccc(O)c(N=Cc2cccc([N+](=O)[O-])c2)c1` [RTC14], the “dystrophin staining in TA muscles” value in series [2] is on record as “Weak expression”.
In the case of `O=C1N/C(=N\C(=O)C2CCNCC2)S/C1=C\c1ccc(-c2ccccc2[N+](=O)[O-])o1` [Compound 16, N-[(2ii,5Z)-5-{[5-(2-nitrophenyl)furan-2-yl]methylidene}-4-oxo-1,3-thiazolidin-2-ylidene]piperidine-4-carboxamide hydrochloride], the solubility in series [1] (setting [16]) came out at 0.18 mg/mL. Moreover, the “number of dystrophin positive fibers” value in series [2] is on record as “compound 5 showed a significantly higher number of positive fibers”.
Take gentamicin: the “dystrophin staining in TA muscles” value in [2] is reported as “Weak expression”.
For the compound `CN1CCN(CC(=O)/N=C2\NC(=O)/C(=C/c3ccc(-c4ccccc4[N+](=O)[O-])o3)S2)CC1` [Compound 8, 2-(4-methylpiperazin-1-yl)-7V-[(2£′,5Z)-5-{[5-(2-nitrophenyl)furan-2-yl]methylidene}-4-oxo-1,3-thiazolidin-2-ylidene]acetamide dihydrochloride], the solubility in series [1] (setting [16]) was 3.3 mg/mL. For the same compound, the “muscle strength, forelimb grip test” value in [8] is “significant force recovery”. The “number of dystrophin positive fibers” value in [2] was “No significant differences”. The “dystrophin expression in muscles” value in series [9] is given as “higher levels of dystrophin expression than muscles obtained from mdx mice treated with PTC124”. For the same compound, in series [10], the “average hanging time, wire test” value is recorded as “more significant than that of sham-injected mice or mice treated with PTC 124”. In addition, the “decrease in force (in percentage) following eccentric contractions” value in series [11] (30 mg/kg and 60 mg/kg three times per day up to one month) is “improvement if loss of force was detected”. The “decrement in force (in percentage)” value in [11] (60 mg/kg three times per day, compared to vehicle only) is on record as “significantly lower”. Besides, in [7], the level in heart result is recorded as “not detected”, the level in biceps entry was “not detected” and the level in gastrocnemius entry is given as “not detected”. In addition, the “serum levels of albumin, ALP, total bilirubin, LDH, cholesterol, total protein, and glucose” value in [12] is given as “within normal range”. Further, in series [12] (compared to vehicle alone), the “alanine aminotransferase (ALT)” value was “decrease”, the “blood urea nitrogen (BUN)” value is “decrease” and the creatinine result is recorded as “decrease”.
For the compound `O=C(O)c1cccc(-c2noc(-c3ccccc3F)n2)c1` [PTC124], in series [8], the “muscle strength, forelimb grip test” value was “No significant improvements”. In series [5], the “read-through of normal termination (stop) codons” value is reported as “does not induce ribosomal readthrough of normal stop codons”. Further, the effect on reporter entry in series [13] is “direct effect on the FLuc (firefly luciferase) reporter”. The “efficacy in clinical trials” value in series [14] is recorded as “indeterminate efficacy”. In series [15], the “readthrough activity compared to aminoglycosides” value is “more efficient readthrough activity than aminoglycosides” and the tolerability entry is reported as “generally well tolerated”. In addition, in series [10], the “average hanging time, wire test” value was “No significant improvements”. In addition, in series [12], the “serum levels of albumin, ALP, total bilirubin, LDH, cholesterol, total protein, and glucose” value is given as “within normal range”.
